Experimental data as given in patent publication US7101878B1 (Agouron Pharmaceuticals, Inc., priority 1998, dated 2006).
Where two headings read alike, the source gives them in different places.

Target: T1, human GnRH receptor (Homo sapiens, UniProt P30968)
T1 construct: expressed in transfected cells; host or cells: HEK 293 (hGnRH-R/293, from Dr. Stuart Sealfon)
T1 sequence (P30968 1-328): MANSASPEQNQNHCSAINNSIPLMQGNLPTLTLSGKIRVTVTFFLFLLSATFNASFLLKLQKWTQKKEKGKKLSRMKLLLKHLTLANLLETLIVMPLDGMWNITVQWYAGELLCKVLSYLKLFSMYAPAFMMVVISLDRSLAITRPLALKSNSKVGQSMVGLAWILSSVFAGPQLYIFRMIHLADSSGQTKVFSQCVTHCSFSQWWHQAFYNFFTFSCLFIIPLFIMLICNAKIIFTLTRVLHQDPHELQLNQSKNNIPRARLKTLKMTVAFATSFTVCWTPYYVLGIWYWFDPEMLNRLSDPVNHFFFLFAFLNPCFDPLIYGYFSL
Assay: Radioligand binding, 125I-GnRH-A displacement, membranes of HEK 293 cells with human GnRH receptor
Conditions: for remaining activity at 1 µM: 1 uM compound, read-out: S%R 1 uM hGnRHR; for IC50: read-out: hGnRH IC50; for remaining activity at 10 µM: read-out: S%R 10 uM hGnRHR
Protocol: All compounds were diluted in 1% DMSO (final assay concentration) in binding assay buffer. […] Reactions were terminated by rapid filtration onto 96-well Packard GF/C filters soaked in 0.1% polyethyleneimine. Filters were washed three times with PBS buffer, dried and counted on a Packard Topcount by liquid scintillation counting.
Assay conditions were identical for assessing compound activities at other species. […] IC50 values for control peptides and test compounds were calculated utilizing GraphPad Prism™ software.
Crude compounds were tested using the competitive radioligand binding assay described above.
The reaction mixture was vortexed and incubated for 1 min at room temperature. After one min, the mixture was vortexed and allowed to incubate for an additional minute. 2 ml of 0.5 M acetic acid/1% BSA was added to the reaction tube and the mixture was added to a C18 Sep-Pak cartridge. The cartridge was washed with subsequent washes of 5 ml H2O and 5 ml 0.5M acetic acid and then eluted with 5×1 ml of 60% CH3CN/40% 0.5M acetic acid. The eluate was diluted with 3× volume of HPLC buffer A (0.1% TFA in H2O) and loaded onto a C18 column. The iodinated product was eluted over 20-25 min with a gradient of 25-100% CH3CN containing 0.1% TFA. The radioactive fractions (750 ed/fraction) are collected into clean polypropylene tubes containing 100 μl of 10% BSA. Fractions were assessed for biological activity by radioligand binding.
S%R is the substrate remaining.

[1] = 1 h, substrate remaining, closer to zero = closer to 100% inhibition
[2] = 1 uM, read-out: % Inhib. @ 1 uM hGnRH
[3] = 1 h, repeat of % Inhib. at 1 uM, read-out: Repeats @ 1 uM hGnRH
[4] = 1 h, substrate remaining, 10 uM compound, closer to zero = closer to 100% inhibition

SMILES	inhibition at 1 µM [2] [%]	inhibition at 1 µM [3] [%]	further results
Cc1cc2c(cc1Cc1ccc(C(=O)NCC(O)c3ccccc3)o1)C(C)(C)CCC2(C)C (stereo not shown) [Compound 444]	–	–	remaining activity at 1 µM [1]: 32%
COc1cccc(OC)c1NC(=O)c1ccc(Cc2c(C)c(C)c(C)c(C)c2C)o1 [Compound 204]	–	–	IC50: 1.27 µM
Cc1cc2c(cc1Cc1ccc(C(=O)NCCc3cccc(Oc4ccccc4)c3)o1)C(C)(C)CCC2(C)C [drawing 1039]	-2	4	–
Cc1cc2c(cc1Cc1ccc(C(=O)NCc3cc(Cl)ccc3Cl)o1)C(C)(C)CCC2(C)C	26	34	–
Cc1cc2c(cc1Cc1ccc(C(=O)NCCc3cccs3)o1)C(C)(C)CCC2(C)C [drawing 1023]	63	64	–
COc1cc(CNC(=O)c2ccc(Cc3cc4c(cc3C)C(C)(C)CCC4(C)C)o2)cc(OC)c1OC [drawing 995]	60	62	–
Cc1cc2c(cc1Cc1ccc(C(=O)N3CCCCC3c3ccccc3)o1)C(C)(C)CCC2(C)C (stereo not shown)	-19	-22	–
Cc1cc2c(cc1Cc1ccc(C(=O)NCCCCCC(=O)O)o1)C(C)(C)CCC2(C)C	-12	-9	–
CCCc1nc(NC(=O)c2ccc(Cc3cc4c(cc3C)C(C)(C)CCC4(C)C)o2)ncc1C(=O)OCC [Compound 198]	–	–	insolubility remark in hGnRH IC50 cell (binding assay conditions): Insol. >3 uM; IC50: 0.78 µM
Cc1cc2c(cc1Cc1ccc(C(=O)NCc3ccc(Br)cc3)o1)C(C)(C)CCC2(C)C [Compound 453]	–	–	remaining activity at 1 µM [1]: 50%
Cc1cc2c(cc1Cc1ccc(C(=O)Nc3ccccc3C)o1)C(C)(C)CCC2(C)C [Compound 362]	–	–	remaining activity at 10 µM [4]: 1%
Cc1cc2c(cc1Cc1ccc(C(=O)NC(C)c3ccc(Cl)cc3)o1)C(C)(C)CCC2(C)C (stereo not shown)	20	28	–
Cc1cc2c(cc1Cc1ccc(C(=O)NCC3CCN(C(=N)N)CC3)o1)C(C)(C)CCC2(C)C [Compound 35]	–	–	IC50: 1.2 µM
CC(=O)NCCNC(=O)c1ccc(Cc2cc3c(cc2C)C(C)(C)CCC3(C)C)o1 [drawing 991]	52	54	–
Cc1cc2c(cc1Cc1ccc(C(=O)N3CCN(c4ccc([N+](=O)[O-])cc4)CC3)o1)C(C)(C)CCC2(C)C	-18	6	–
Cc1cc2c(cc1Cc1ccc(C(=O)Nc3ccccc3)o1)C(C)(C)CCC2(C)C [Compound 384]	–	–	remaining activity at 10 µM [4]: 21%
CCOc1ccc(NC(=O)c2ccc(Cc3cc4c(cc3C)C(C)(C)CCC4(C)C)o2)cc1 [Compound 338]	–	–	remaining activity at 10 µM [4]: 26%
COc1ccc(CNC(=O)c2ccc(Cc3cc4c(cc3C)C(C)(C)CCC4(C)C)o2)cc1 [Compound 414]	–	–	remaining activity at 1 µM [1]: 10%
CCCOCCNC(=O)c1ccc(Cc2cc3c(cc2C)C(C)(C)CCC3(C)C)o1 [Compound 132]	–	–	IC50: 0.64 µM
COc1ccc(CNC(=O)c2ccc(Cc3cc4c(cc3C)C(C)(C)CCC4(C)C)o2)cc1OC [drawing 1095]	69	75	–
Cc1cc2c(cc1Cc1ccc(C(=O)NC3CCCc4ccccc43)o1)C(C)(C)CCC2(C)C (stereo not shown) [drawing 1127]	14	27	–
Cc1cc2c(cc1Cc1ccc(C(=O)NCCNc3ccccc3)o1)C(C)(C)CCC2(C)C [drawing 1080]	70	72	–
Cc1cc(C)cc(NC(=O)c2ccc(Cc3cc4c(cc3C)C(C)(C)CCC4(C)C)o2)c1 [Compound 236]	–	–	IC50: 0.903 µM
Cc1cc2c(cc1Cc1ccc(C(=O)NCc3ccco3)o1)C(C)(C)CCC2(C)C [drawing 1089]	79	82	–
COc1ccc(OC)c(Cc2ccc(C(=O)Nc3c(OC)cccc3OC)o2)c1 [Compound 202]	–	–	IC50: 1.42 µM
Cc1cc2c(cc1Cc1ccc(C(=O)NCc3ccccc3Sc3ccccc3CO)o1)C(C)(C)CCC2(C)C	51	54	–
COc1cccc(NC(=O)c2ccc(Cc3cc4c(cc3C)C(C)(C)CCC4(C)C)o2)c1 [Compound 337]	–	–	remaining activity at 10 µM [4]: 6%
Cc1cc2c(cc1Cc1ccc(C(=O)NC(C#N)c3ccccc3)o1)C(C)(C)CCC2(C)C (stereo not shown) [Compound 452]	–	–	remaining activity at 1 µM [1]: 55%

SMILES	inhibition at 1 µM [2] [%]	inhibition at 1 µM [3] [%]	further results
Cc1cc2c(cc1Cc1ccc(C(=O)N3CCN(c4ccccc4F)CC3)o1)C(C)(C)CCC2(C)C	24	3	–
Cc1cc2c(cc1Cc1ccc(C(=O)NCC(c3ccccc3)c3ccccc3)o1)C(C)(C)CCC2(C)C	-21	-26	–
Cc1cc2c(cc1Cc1ccc(C(=O)Nc3cccc4c(=O)[nH][nH]c(=O)c34)o1)C(C)(C)CCC2(C)C [Compound 387]	–	–	remaining activity at 10 µM [4]: 52%
Cc1cc2c(cc1Cc1ccc(C(=O)Nn3c(N)nc(C(F)(F)F)cc3=O)o1)C(C)(C)CCC2(C)C	–	–	inhibition at 10 µM (repeat, read-out: Repeats @ 10 uM hGnRH (% inhib.)): -5%; inhibition at 10 µM (read-out: % inhib. @ 10 uM hGnRH): -10%
COc1cc(CNC(=O)c2ccc(Cc3cc4c(cc3C)C(C)(C)CCC4(C)C)o2)ccc1O [Compound 448]	–	–	remaining activity at 1 µM [1]: 46%
COc1ccccc1CNC(=O)c1ccc(Cc2cc3c(cc2C)C(C)(C)CCC3(C)C)o1 [Compound 404]	–	–	remaining activity at 1 µM [1]: 13%
Cc1cc2c(cc1Cc1ccc(C(=O)NCC3CCC(C(=O)O)CC3)o1)C(C)(C)CCC2(C)C (stereo not shown) [drawing 1024]	66	76	–
Cc1ccc(-n2nc(C)cc2NC(=O)c2ccc(Cc3cc4c(cc3C)C(C)(C)CCC4(C)C)o2)cc1 [Compound 326]	–	–	remaining activity at 10 µM [4]: 51%
Cc1cc2c(cc1Cc1ccc(C(=O)Nc3ccccc3CO)o1)C(C)(C)CCC2(C)C [Compound 333]	–	–	remaining activity at 10 µM [4]: 28%
Cc1cc2c(cc1Cc1ccc(C(=O)NCCNc3ccccc3)o1)C(C)(C)CCC2(C)C [Compound 406]	–	–	remaining activity at 1 µM [1]: 30%
Cc1cc2c(cc1Cc1ccc(C(=O)NCc3ccco3)o1)C(C)(C)CCC2(C)C [Compound 407]	–	–	remaining activity at 1 µM [1]: 20%
Cc1cc2c(cc1Cc1ccc(C(=O)NCc3cccc(Cl)c3)o1)C(C)(C)CCC2(C)C [drawing 1136]	78	84	–
Cc1cc2c(cc1Cc1ccc(C(=O)NC3CCCCC3Cc3nccc(NCC4CCCO4)n3)o1)C(C)(C)CCC2(C)C (stereo not shown)	-21	-5	–
Cc1cc2c(cc1Cc1ccc(C(=O)NCC3CCN(c4nccc(NCC5CCCO5)n4)CC3)o1)C(C)(C)CCC2(C)C (stereo not shown) [drawing 1037]	35	35	–
Cc1cc2c(cc1Cc1ccc(C(=O)NC(CO)C(O)c3ccccc3)o1)C(C)(C)CCC2(C)C (stereo not shown)	-1	12	–
Cc1cc2c(cc1Cc1ccc(C(=O)NCc3ccccc3OC(F)(F)F)o1)C(C)(C)CCC2(C)C	1	41	–
Cc1cc2c(cc1Cc1ccc(C(=O)NC(CO)CSCc3ccccc3)o1)C(C)(C)CCC2(C)C (stereo not shown)	16	7	–
Cc1cc2c(cc1Cc1ccc(C(=O)NC(CCO)c3ccccc3)o1)C(C)(C)CCC2(C)C (stereo not shown)	17	23	–
Cc1cc2c(cc1Cc1ccc(C(=O)NC(C)c3ccc(F)cc3)o1)C(C)(C)CCC2(C)C (stereo not shown)	28	35	–
Cc1ccc([C@H](C)NC(=O)c2ccc(Cc3cc4c(cc3C)C(C)(C)CCC4(C)C)o2)cc1 [Compound 123]	–	–	IC50: 0.51 µM
Cc1cc2c(cc1Cc1ccc(C(=O)NCc3ccccc3Cl)o1)C(C)(C)CCC2(C)C [Compound 417]	–	–	remaining activity at 1 µM [1]: 20%
Cc1cc2c(cc1Cc1ccc(C(=O)NCCOc3ccccc3)o1)C(C)(C)CCC2(C)C [Compound 438]	–	–	remaining activity at 1 µM [1]: 7%
COc1ccc(CNC(=O)c2ccc(Cc3cc4c(cc3C)C(C)(C)CCC4(C)C)o2)cc1 [drawing 1098]	89	92	–
Cc1cc2c(cc1Cc1ccc(C(=O)Nc3ccccc3C(=O)Nc3cnccn3)o1)C(C)(C)CCC2(C)C	-27	-29	–
Cc1cc2c(cc1Cc1ccc(C(=O)NCc3ccc(C(C)(C)C)cc3)o1)C(C)(C)CCC2(C)C [drawing 1140]	-14	-6	–
Cc1cc2c(cc1Cc1ccc(C(=O)Nc3ccc4[nH]ccc4c3)o1)C(C)(C)CCC2(C)C [Compound 354]	–	–	S%R 10 uM hGnRHR (substrate remaining, 10 uM compound, closer to zero = closer to 100% inhibition): −5%
CCN(CC)C(=O)c1ccc(Cc2cc3c(cc2C)C(C)(C)CCC3(C)C)o1 [Compound 238]	–	–	IC50: 7.83 µM
